Results reported in PMC6735331, “Competitive α-glucosidase inhibitors, dihydrobenzoxanthones, from the barks of Artocarpus elasticus” (Journal of Enzyme Inhibition and Medicinal Chemistry, 2019).
Entries after “also recorded” stand apart in the source; their conditions may differ. Where two headings read alike, the source gives them in different places.

What was measured:
[1] = molecular target: T1, α-glucosidase (EC3.2.1.20) (Saccharomyces cerevisiae, UniProt P53341); test: biochemical
T1 construct: purchased Sigma Aldrich
T1 sequence (P53341 whole entry): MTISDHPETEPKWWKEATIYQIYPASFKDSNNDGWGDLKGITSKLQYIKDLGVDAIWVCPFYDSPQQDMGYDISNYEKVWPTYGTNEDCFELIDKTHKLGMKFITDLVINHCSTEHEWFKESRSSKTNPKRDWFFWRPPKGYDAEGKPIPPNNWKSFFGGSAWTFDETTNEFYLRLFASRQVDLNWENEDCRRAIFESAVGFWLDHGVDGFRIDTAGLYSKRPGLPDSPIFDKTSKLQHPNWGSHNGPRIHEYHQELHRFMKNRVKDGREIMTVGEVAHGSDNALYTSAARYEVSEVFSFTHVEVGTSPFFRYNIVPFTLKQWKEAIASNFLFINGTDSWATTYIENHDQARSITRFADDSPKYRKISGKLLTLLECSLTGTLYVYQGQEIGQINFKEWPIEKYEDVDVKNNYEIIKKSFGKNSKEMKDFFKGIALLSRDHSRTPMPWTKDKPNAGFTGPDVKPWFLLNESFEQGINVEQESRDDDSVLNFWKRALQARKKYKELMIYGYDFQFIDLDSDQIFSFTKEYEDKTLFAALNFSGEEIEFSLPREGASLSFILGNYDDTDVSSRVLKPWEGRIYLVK
Experimental: The inhibitory activity of α-glucosidase (EC3.2.1.20) was carried out with a few changes from literature reported method, using p-nitrophenyl-α-D-glucopyranoside at optimal pH of 6.8 (50 mM phosphate buffer)[3]. Inhibitors were dissolved and diluted to a needed concentration in DMSO. […] The absorbance of formed p-nitrophenol immediately measured with a wavelength of 405 nm at 37 °C. […] Calculation of the % of inhibition was as follows: (1) Activity (%)=100[1+([I]/IC50)]

[2] = molecular target: T1, α-glucosidase (EC3.2.1.20); test: α-Glucosidase enzyme kinetics (Lineweaver–Burk, Dixon plots, secondary plots, Yang's method); format: biochemical; parameters: Vmax: unit not given here; settings: for Kik/Kiv: Yang's method; for Kinetic mode: double reciprocal (Lineweaver–Burk) plots; for KIS: inhibitor binding with enzyme-substrate complex, secondary plots of intercepts
Experimental: Similarly, the enzyme kinetic modes were clarified using a different p-nitrophenyl-α-D-glucopyranoside substrate (0, 0.5, 1, and 2 mM) and inhibitors concentrations. Analysis of the data used to determine the individual parameters of curves was prepared in the nonlinear regression program Sigma Plot (SPCC Inc., Chicago, IL, USA). The kinetic parameters, Michaelis–Menten (Km) and maximum velocity (Vmax), were found using Lineweaver–Burk plots. The dissociation constants between inhibitor and enzyme (Ki) were found from Dixon plots. Two inhibition constants for inhibitor binding with either free or enzyme-substrate complex, KI or KIS, were calculated from secondary plots of the slopes of the straight lines or vertical intercept (1/ Vmaxapp ), respectively, verse the concentration of inhibitors by Equations (2)–(4). Kik and Kiv rate constants were calculated according to Equations (5) and (6) proposed by Yang et al.[20]: (2) 1/V=Km/Vmax(1 + [I]/KI)1/S + 1/Vmax (3) Slope =Km/KIVmax[I] +Km/Vmax (4) Intercept = 1/KISVmax[I] +[…] (5) Km=Km0× (1 + [I]/Kik) (6) Vm=Vm0× (1 + [I]/Kiv)

[3] = molecular target: T2, α-glucosidase (Saccharomyces cerevisiae, UniProt P53341); test: Progress curves and time-dependent (slow-binding) assay; format: biochemical
T2 construct: purchased Sigma Aldrich
T2 sequence (P53341 whole entry): as above
Experimental: Time-dependent assays of inhibitors at the different preincubation time (0, 15, 30, 45, 60 and 80 min) were accomplished using 0.05 unit/mL final concentration of α-glucosidase and p-nitrophenyl-α-D-glucopyranoside substrate (1 mM) in 50 mM phosphate buffer (pH 6.8) at 37 °C[21]. The progress curves were monitored every 30 s for 30 min. Furthermore, to clearly understand the time-dependent inhibition mode of α-glucosidase, inhibitors were assayed using different concentrations. Accordingly, the progress curves were calculated using Equations (7)–(11). Analysis of the data was prepared by the nonlinear regression program Sigma Plot (SPCC Inc., Chicago, IL, USA): (7) [P]t/[E]= vst+ vi−vs/kobs(1−e^−kobst) where [P]t is the concentration of product formed and [E] is the total enzyme concentration. (8) v/v0= exp (−kobst) (9) Enz+I⇄k4k3Enz−I (10) kobs=k4(1+[I]/Kiapp) (11) Kiapp=k4/k3

[4] = molecular target: T2, α-glucosidase; test: Binding affinity measurement by fluorescence quenching (Stern–Volmer); settings: for KSV: Stern–Volmer constant
Experimental: 180 µL of 50 mM phosphate buffer (pH 6.8) with 10 µL of 0.2 unit/mL α-glucosidase were added into the 96-well black immuno-plates then 10 µL different concentrations (2–32 µM) of inhibitor were added. Fluorescent emission spectra were recorded from 300 to 400 nm, emission slits adjusted to 2.0 nm, and the excitation was 250 nm, using spectrophotometer (SpectraMax M3). There was no significant emission from any ingredient in the assay system under given experimental conditions (i.e. emission from 300 to 400 nm). A level of affinity was expressed with KSV, which was analysed using the Stern–Volmer equation: (12) […]=1+KSV[Qf] where F0 and F are the fluorescence intensities in the absence and presence of a quencher. Qf is a concentration of compounds.

[5] = molecular target: T1, α-glucosidase (EC3.2.1.20); test: α-Glucosidase enzyme kinetics (Lineweaver–Burk, Dixon plots, secondary plots, Yang's method); format: biochemical; settings: enzyme activity vs. enzyme concentration at different inhibitor concentrations
[6] = p-NPG substrate, 50 mM phosphate buffer pH 6.8, 37 °C, read-out: IC50
[7] = from Dixon plots, read-out: Ki (inhibition constant)
[8] = slow-binding fit, Equations (10) and (11)
[9] = fluorescence quenching, read-out: KA (converted)

SMILES | IC50 [1, 6] [µM] | Kinetic mode [2] | Ki [2, 7] [µM] | KSV [4] | KSV ([4]; pH 6.8, 37 °C) | Kd [4, 9] [µM] | Vmax ([2]; [I] 7.5 μM) | Kik/Kiv ([2]; [I] 7.5 μM) | Vmax ([2]; [I] 15.0 μM) | Kik/Kiv ([2]; [I] 15.0 μM) | Vmax ([2]; [I] 30.0 μM) | Kik/Kiv ([2]; [I] 30.0 μM) | KIS [2] [µM] | other results
C=C(C)C1Cc2c(oc3cc(OC)cc(O)c3c2=O)-c2c(O)cc(O)c(O)c21 (centres unmarked) [Compound 1, 1,3,4,8-tetrahydroxy-10-methoxy-5-(prop-1-en-2-yl)-5,6-dihydro-benzo[c]xanthen-7-one] | 7.6 ± 0.2 | Competitive | 2.9 | 1.84 × 10^5 Lmol^−1 | 1.84 ×10^5 L·mol^–1 | 1.27 |  |  |  |  |  |  |  | Vmax ([2]; [I] 4.0 μM): 6.30; Kik/Kiv ([2]; [I] 4.0 μM): 55.80; Vmax ([2]; [I] 8.0 μM): 6.50; Kik/Kiv ([2]; [I] 8.0 μM): 48.88; Vmax ([2]; [I] 16.0 μM): 7.55; Kik/Kiv ([2]; [I] 16.0 μM): 29.79; Time-dependent inhibition mode ([3]; preincubation time dependence, kobs vs [I]): competitive and reversible simple slow-binding; also recorded: slow-binding inhibitor; k3 [3, 8]: 728 M⁻¹ s⁻¹; k4 [3, 8]: 0.0166 min⁻¹; Ki ([3]; slow-binding fit, Kiapp = k4/k3): 0.38 µM; Reversibility of inhibition [5]: reversible inhibitor
CC1(C)Oc2c(O)cc(O)c3c2C1Cc1c-3oc2cc(O)cc(O)c2c1=O (centres unmarked) [Compound 3, artoindonesianin P] | 25.4 ± 0.7 | Competitive | 12.6 | 0.51 × 10^5 Lmol^−1 | 0.51 ×10^5 L·mol^–1 | 1.75 |  |  |  |  |  |  |  | Vmax ([2]; [I] 17.5 μM): 6.6800; Kik/Kiv ([2]; [I] 17.5 μM): 23.8593; Vmax ([2]; [I] 35 μM): 6.7889; Kik/Kiv ([2]; [I] 35 μM): 31.6240; Vmax ([2]; [I] 70 μM): 6.7204; Kik/Kiv ([2]; [I] 70 μM): 75.7804
CC(C)=CCCC1(C)C=Cc2c(cc(O)c3c(=O)c(CC=C(C)C)c(-c4cc(O)c(O)cc4O)oc23)O1 (single isomer, unassigned; (-)) [Compound 5, (-)-2-(2,4,5-trihydroxyphenyl)-3-(3-methyl-2-buten-1-yl)-5-hydroxy-8-methyl-8-(4-methyl-3-penten-1-yl)-4H,8H-benzo[1,2-b:3,4-b']dipyran-4-one] | 8.8 ± 0.3 | Mixed type I |  |  | 1.63 ×10^5 L·mol^–1 | 1.23 | 4.74 | 3.79 | 3.67 | 3.18 | 2.79 | 3.25 | 20.4 | Ki ([2]; inhibitor binding with free enzyme, secondary plots of slopes, read-out: KI): 5.4 µM
CC(C)=CCc1c(-c2cc(O)c(O)cc2O)oc2c3c(cc(O)c2c1=O)OC(C)(C)C=C3 [Compound 6, artonin E] |  | Mixed type I |  | 0.93 × 10^5 Lmol^−1 | 0.93 ×10^5 L·mol^–1 |  | 5.0352 | 3.7049 | 4.2992 | 2.5098 | 3.6219 | 1.8101 | 51.7 | IC50 [1]: 16.2 ± 0.8 µM; Ki ([2]; KI, inhibitor binding with free enzyme, secondary plots of slopes): 15.4 µM; Ki ([2]; Ki (inhibition constant), from Dixon plots): 15.8 µM; Kd [4]: 1.28 µM
C=C(C)[C@H]1Cc2c(oc3c4c(cc(O)c3c2=O)OC(C)(C)C=C4)-c2c(O)cc(O)c(O)c21 [Compound 2, artobiloxanthone] | 8.6 ± 0.5 | Competitive | 5.1 |  | 1.53 ×10^5 L·mol^–1 | 1.32 | 9.7056 | 76.6587 | 9.6712 | 102.4604 | 9.8012 | 209.3396 |  | 
CC1(C)C=Cc2c(cc(O)c3c(=O)c4c(oc23)-c2c(O)cc(O)c3c2C(C4)C(C)(C)O3)O1 (centres unmarked) [Compound 4, cycloartobiloxanthone] | 9.6 ± 0.6 | Competitive | 5.8 |  | 1.29 ×10^5 L·mol^–1 | 1.27 | 6.3816 | 16.6987 | 7.3692 | 11.4837 | 7.4627 | 20.2662 |  | 
